“Also recorded” adds a separate entry of the source. Like-named read-outs stand apart in the source and are kept apart here. Numbered stars: 1 amine (or outer) side, 2 acyl side, 3 side chain; on linkers, the order of the positions; unused ones are H or OH. Bridge positions count the residues as written; N and C are the ends. Square brackets hold non-standard residues; d marks the D form. Peptide text beside a SMILES is read from it. 2Nal = N[C@@H](Cc1ccc2ccccc2c1)C(=O)O; CH2 = C([*:1])[*:2]
Assays:
DOR [1] = molecular target: T1, DOR (Rattus norvegicus, UniProt P33533); type: cell-based
MOR = MOR (Rattus norvegicus, UniProt P33535); experiment: [35S]GTPγS binding assay, C6-MOR membranes; type: biochemical; conditions: [35S]GTPγS assay
KOR = KOR (Homo sapiens, UniProt P41145); experiment: [35S]GTPγS binding assay, CHO-KOR membranes; type: biochemical; conditions: [35S]GTPγS assay
DOR [2] = molecular target: T1, DOR; experiment: [35S]GTPγS binding assay, C6-DOR membranes; type: biochemical; conditions: [35S]GTPγS assay
DOR [3] = molecular target: T1, DOR; experiment: Antagonism of SNC80-stimulated [35S]GTPγS binding in C6-DOR; type: biochemical

T1 sequence (P33533 whole entry): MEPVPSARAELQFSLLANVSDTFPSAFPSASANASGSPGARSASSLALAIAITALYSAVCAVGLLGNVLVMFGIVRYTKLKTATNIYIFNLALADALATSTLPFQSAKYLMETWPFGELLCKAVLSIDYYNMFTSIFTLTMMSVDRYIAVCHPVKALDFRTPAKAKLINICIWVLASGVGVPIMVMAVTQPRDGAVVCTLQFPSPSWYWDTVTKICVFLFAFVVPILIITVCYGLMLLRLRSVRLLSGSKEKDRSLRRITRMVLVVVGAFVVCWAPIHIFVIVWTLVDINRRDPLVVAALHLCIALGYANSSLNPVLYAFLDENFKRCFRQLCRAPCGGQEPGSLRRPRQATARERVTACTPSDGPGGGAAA
Sequence of MOR (P33535 whole entry): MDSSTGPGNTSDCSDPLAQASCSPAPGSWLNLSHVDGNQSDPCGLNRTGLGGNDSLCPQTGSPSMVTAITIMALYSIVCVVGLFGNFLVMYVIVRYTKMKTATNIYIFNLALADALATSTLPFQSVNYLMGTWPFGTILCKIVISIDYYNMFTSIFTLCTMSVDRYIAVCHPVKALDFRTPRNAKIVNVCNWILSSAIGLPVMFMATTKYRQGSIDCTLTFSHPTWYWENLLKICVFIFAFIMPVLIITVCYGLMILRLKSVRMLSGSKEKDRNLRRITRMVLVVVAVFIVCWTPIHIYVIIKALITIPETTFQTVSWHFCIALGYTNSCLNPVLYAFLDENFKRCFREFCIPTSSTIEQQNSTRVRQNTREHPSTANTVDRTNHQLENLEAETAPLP
Sequence of KOR (P41145 whole entry): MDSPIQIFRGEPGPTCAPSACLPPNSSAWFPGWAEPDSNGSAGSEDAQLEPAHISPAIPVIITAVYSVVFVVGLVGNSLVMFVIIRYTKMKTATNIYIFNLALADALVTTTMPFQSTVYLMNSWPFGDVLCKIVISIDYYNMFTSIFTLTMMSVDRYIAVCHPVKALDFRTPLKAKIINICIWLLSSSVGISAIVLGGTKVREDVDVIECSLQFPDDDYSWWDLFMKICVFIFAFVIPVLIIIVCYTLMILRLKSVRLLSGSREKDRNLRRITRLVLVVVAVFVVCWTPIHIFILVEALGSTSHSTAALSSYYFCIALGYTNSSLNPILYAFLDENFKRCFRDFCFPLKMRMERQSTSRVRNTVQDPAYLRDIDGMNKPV

SMILES: Oc1ccc2c3c1O[C@H]1c4[nH]c5ccccc5c4C[C@@]4(O)[C@@H](C2)N(CC2CC2)CC[C@]314 [naltrindole]
- activity in adenylyl cyclase inhibition assay (DOR [1]): without effect; also recorded: did not inhibit cAMP accumulation

SMILES: C=CCN1C[C@H](C)N([C@H](c2ccc(C(=O)N(CC)CC)cc2)c2cccc(OC)c2)C[C@H]1C [SNC80, 4-[(R)-[(2S,5R)-4-allyl-2,5-dimethylpiperazin-1-yl](3-methoxyphenyl)methyl]-N,N-diethylbenzamide]
- calculated maximal inhibition of adenylyl cyclase (DOR [1]): 76 ± 8.8%

SMILES: NC(=O)[C@@H]1CSCSC[C@@H](NC(=O)[C@@H](N)Cc2ccc(O)cc2)C(=O)N[C@@H](Cc2ccccc2)C(=O)N[C@@H](Cc2ccc3ccccc3c2)C(=O)N1 [compound 9, Tyr-c(S-CH2-S)[D-Cys-Phe-2-Nal-Cys]NH2] (H-Y[dC]F[2Nal]C-NH2; linker 2-5 via CH2; N-terminus assumed)
- efficacy profile at MOR (MOR): full agonist
- activity in adenylyl cyclase inhibition assay (DOR [1]; C6-DOR cells): partial agonist
- calculated maximal inhibition of adenylyl cyclase (DOR [1]; calculated maximum, 5 µM forskolin-stimulated, C6-DOR cells): 43 ± 9.0%
- efficacy profile at KOR (KOR): full agonist
- efficacy profile at DOR (DOR [2]): essentially as antagonists
- Kb (DOR [3]): 0.048 ± 0.0095 µM
